Data reported in patent US20150105252A1, “SUBSTITUTED PYRAZOLES AS HERBICIDES” (E I DU PONT DE NEMOURS AND COMPANY, priority 2013, published 2015).

Key:
speedwell = assay: Test D preemergence; format: in vivo, Veronica persica; details: scale 0 to 100
From the text: (§1) Seeds of plant species selected from bluegrass (annual bluegrass, Poa annua), blackgrass (Alopecurus myosuroides), canarygrass (littleseed canarygrass, Phalaris minor), chickweed (common chickweed, Stellaria media), galium (catchweed bedstraw, Galium aparine), bromegrass, downy (downy bromegrass, Bromus tectorum), field poppy (Papaver rhoeas), field violet (Viola arvensis), foxtail, green (green foxtail, Setaria viridis), deadnettle (henbit deadnettle, Lamium amplexicaule), ryegrass, Italian (Italian ryegrass, Lolium multiflorum), kochia (Kochia scoparia), lambsquarters (Chenopodium album), oilseed rape (Brassica napus), pigweed (redroot pigweed, Amaranthus retroflexus), chamomile (scentless chamomile, Matricaria inodora), speedwell (bird's-eye speedwell, Veronica persica), barley, spring (spring barley, Hordeum vulgare), wheat, spring (spring wheat, Triticum aestivum), buckwheat, wild (wild buckwheat, Polygonum convolvulus), mustard, wild (wild mustard, Sinapis arvensis), oat, wild (wild oat, Avena fatua), radish, wild (wild radish, Raphanus raphanistrum), windgrass (Apera spica-venti), Russian thistle (Salsola kali), barley, winter (winter barley, Hordeum vulgare), and wheat, winter (winter wheat, Triticum aestivum) were planted into a silt loam soil and treated preemergence with test chemicals formulated in a non-phytotoxic solvent mixture which included a surfactant.
(§2) At the same time, these species were planted in pots containing Redi-Earth® planting medium (Scotts Company, 14111 Scottslawn Road, Marysville, Ohio 43041) comprising spaghnum peat moss, vermiculite, wetting agent and starter nutrients and treated with postemergence applications of the test chemicals formulated in the same manner. Plants ranged in height from 2 to 18 cm (1- to 4-leaf stage). Treated plants and controls were maintained in a controlled growth environment for 14 to 21 days after which time all species were compared to controls and visually evaluated. Plant response ratings, summarized in Table D, are based on a scale of 0 to 100 where 0 is no effect and 100 is complete control. A dash (-) response means no test result.

dallisgrass = assay: Test E preemergence; format: in vivo, Paspalum dilatatum; details: 21 days, scale 0 to 100
From the text: Seeds of plant species selected from bermudagrass (Cynodon dactylon), Surinam grass (Brachiaria decumbens), crabgrass, large (large crabgrass, Digitaria sanguinalis), crabgrass, naked (naked crabgrass, Digitaria nuda), foxtail, green (green foxtail, Setaria viridis), johnsongrass (Sorghum halepense), kochia (Kochia scoparia), morningglory (pitted morningglory, Ipomoea lacunosa), nutsedge, purple (purple nutsedge, Cyperus rotundus), ragweed (common ragweed, Ambrosia elation), mustard, black (black mustard, Brassica nigra), guineagrass (Panicum maximum), dallisgrass (Paspalum dilatatum), barnyardgrass (Echinochloa crus-galli), sandbur (southern sandbur, Cenchrus echinatus), sowthistle (common sowthistle, Sonchus oleraceous), ryegrass, Italian (Italian ryegrass, Lolium multiflorum), signalgrass (broadleaf signalgrass, Brachiaria platyphylla), dayflower, VA (Virginia (VA) dayflower, Commelina virginica), bluegrass (annual bluegrass, Poa annua), quackgrass (Elytrigia repens), mallow (common mallow, Malva sylvestris), buckwheat, wild (wild buckwheat, Polygonum convolvulus), leafy spurge (Euphorbia esula), common chickweed (Stellaria media), wild poinsettia (Euphorbia heterophylla), pigweed, palmer (palmer pigweed, Amaranthus palmeri), and pigweed (redroot pigweed, Amaranthus retroflexus) were planted into a blend of loam soil and sand and treated preemergence with test chemicals formulated in a non-phytotoxic solvent mixture which included a surfactant.
Treated plants and controls were maintained in a greenhouse for 21 days, after which time all species were compared to controls and visually evaluated. Plant response ratings, summarized in Table E, are based on a scale of 0 to 100 where 0 is no effect and 100 is complete control. A dash (-) response means no test result.

mustard, wild = assay: Test D preemergence; format: in vivo, Sinapis arvensis; details: scale 0 to 100
From the text: as §1, §2

deadnettle = assay: Test D postemergence; format: in vivo, Lamium amplexicaule; details: scale 0 to 100
From the text: as §1, §2

johnsongrass = assay: Test F preemergence; format: in vivo, Sorghum halepense
From the text: (§3) Seeds of plant species selected from corn (Zea mays), soybean (Glycine max), velvetleaf (Abutilon theophrasti), lambsquarters (Chenopodium album), wild poinsettia (Euphorbia heterophylla), pigweed, palmer (palmer pigweed, Amaranthus palmeri), common waterhemp (Amaranthus rudis), surinam grass (Brachiaria decumbens), large crabgrass (Digitaria sanguinalis), crabgrass, Brazil (Brazilian crabgrass, Digitaria horizontalis), fall panicum (Panicum dichotomiflorum), giant foxtail (Setaria faberii), green foxtail (Setaria viridis), goosegrass (Eleusine indica), johnsongrass (Sorghum halepense), common ragweed (Ambrosia elation), barnyardgrass (Echinochloa crus-galli), southern sandbur (Cenchrus echinatus), arrowleaf sida (Sida rhombifolia), Italian ryegrass (Lolium multiflorum), dayflower, VA (Virginia (VA) dayflower, Commelina virginica), field bindweed (Convolvulus arvensis), cocklebur (common cocklebur, Xanthium strumarium), morningglory (Ipomoea coccinea), nightshade (eastern black nightshade, Solanum ptycanthum), kochia (Kochia scoparia), yellow nutsedge (Cyperus esculentus), and hairy beggarticks (Bidens pilosa), were planted into a silt loam soil and treated preemergence with test chemicals formulated in a non-phytotoxic solvent mixture which included a surfactant.
(§4) At the same time, plants from these crop and weed species and also horseweed (Canada horseweed, Conyza canadensis), smartweed (ladysthumb smartweed, Polygonum persicaria), waterhemp_RES1, (ALS & Triazine resistant common waterhemp, Amaranthus rudis), and waterhemp_RES2, (ALS & HPPD resistant common waterhemp, Amaranthus rudis) were treated with postemergence applications of test chemicals formulated in the same manner. Plants ranged in height from 2 to 18 cm for postemergence treatments (1- to 4-leaf stage). Treated plants and controls were maintained in a greenhouse for 14 to 21 days, after which time all species were compared to controls and visually evaluated. Plant response ratings, summarized in Table F, are based on a scale of 0 to 100 where 0 is no effect and 100 is complete control. A dash (-) response means no test result.

dayflower, VA = assay: Test F preemergence; format: in vivo, Commelina virginica
From the text: as §3, §4

arrowleaf sida = assay: Test F preemergence; format: in vivo, Sida rhombifolia
From the text: as §3, §4

[1] = Preemergence, 31 g ai/ha, scale 0 to 100
[2] = Preemergence, 62 g ai/ha, scale 0 to 100
[3] = Preemergence, 125 g ai/ha, scale 0 to 100
[4] = preemergence, 8 g ai/ha, scale 0 to 100, 100 is complete control
[5] = preemergence, 16 g ai/ha, scale 0 to 100, 100 is complete control
[6] = Preemergence, 16 g ai/ha, scale 0 to 100
[7] = Preemergence, 250 g ai/ha, scale 0 to 100

Compound	Plant response rating, Speedwell (speedwell; 62 g ai/ha)	Plant response rating, Speedwell (speedwell; 125 g ai/ha)	Plant response rating, Speedwell (speedwell; 250 g ai/ha)	Plant response rating, Mustard, Wild (mustard, wild; 62 g ai/ha)	Plant response rating, Mustard, Wild (mustard, wild; 125 g ai/ha)	Plant response rating, Mustard, Wild (mustard, wild; 250 g ai/ha)	Deadnettle plant response rating (deadnettle; Postemergence, 31 g ai/ha)	Plant response rating, Johnsongrass (johnsongrass; [2])	Plant response rating, Johnsongrass (johnsongrass; [3])	Plant response rating, Johnsongrass (johnsongrass; [4])	Plant response rating, Johnsongrass (johnsongrass; [5])	Plant response rating, Dayflower, VA (dayflower, VA; [2])	Plant response rating, Dayflower, VA (dayflower, VA; [3])	Plant response rating, Dayflower, VA (dayflower, VA; [4])	Plant response rating, Dayflower, VA (dayflower, VA; [5])	Plant response rating, Arrowleaf Sida (arrowleaf sida; [2])	Plant response rating, Arrowleaf Sida (arrowleaf sida; [3])	Plant response rating, Arrowleaf Sida (arrowleaf sida; [4])	Plant response rating, Arrowleaf Sida (arrowleaf sida; [5])	Plant response rating, Arrowleaf Sida (arrowleaf sida; [6])	also measured
CCc1cc(C(=O)NC(C)C)nn1Cc1ccnc(C(F)(F)F)c1 [Compound 103]	100	100	100	60	75	100	20	–	–	–	–	–	–	–	–	–	–	–	–	–	Plant response rating, Speedwell (speedwell; 31 g ai/ha): 70; Plant response rating, Dallisgrass (dallisgrass; 16 g ai/ha): 90; Plant response rating, Dallisgrass (dallisgrass; 31 g ai/ha): 100; Plant response rating, Dallisgrass (dallisgrass; 62 g ai/ha): 100; Plant response rating, Dallisgrass (dallisgrass; 125 g ai/ha): 100; Plant response rating, Dallisgrass (dallisgrass; 250 g ai/ha): 100; Plant response rating, Mustard, Wild (mustard, wild; 31 g ai/ha): 55; Deadnettle plant response rating (deadnettle; Postemergence, 125 g ai/ha): 25; Deadnettle plant response rating (deadnettle; Postemergence, 250 g ai/ha): 30; Deadnettle plant response rating (deadnettle; postemergence, 62 g ai/ha): 25
CCOc1cc(C(=O)NCC(F)(F)F)nn1Cc1ccnc(C(F)(F)F)c1 [Compound 104]	–	–	–	–	–	–	–	75	100	15	35	98	100	0	0	20	30	0	0	–	Plant response rating, Dallisgrass (dallisgrass; 16 g ai/ha): 95; Plant response rating, Dallisgrass (dallisgrass; 31 g ai/ha): 98; Plant response rating, Dallisgrass (dallisgrass; 62 g ai/ha): 100; Plant response rating, Dallisgrass (dallisgrass; 125 g ai/ha): 100; Plant response rating, Dallisgrass (dallisgrass; 250 g ai/ha): 100; Plant response rating, Johnsongrass (johnsongrass; [1]): 60; Plant response rating, Dayflower, VA (dayflower, VA; [1]): 50; Plant response rating, Arrowleaf Sida (arrowleaf sida; [1]): 10
CCCc1cc(C(=O)NCC(F)(F)F)nn1Cc1cc(C(F)(F)F)nn1C [Compound 138]	100	100	100	100	100	100	65	–	–	–	–	–	–	–	–	–	–	–	–	–	Deadnettle plant response rating (deadnettle; Postemergence, 125 g ai/ha): 75; Deadnettle plant response rating (deadnettle; Postemergence, 250 g ai/ha): 85; Deadnettle plant response rating (deadnettle; postemergence, 62 g ai/ha): 65
CCNC(=O)c1cc(CCCl)n(Cc2ccnc(C(F)(F)F)c2)n1 [Compound 179]	–	–	–	–	–	–	–	20	70	0	–	10	40	0	–	0	35	0	–	–	Plant response rating, Johnsongrass (johnsongrass; [1]): 20; Plant response rating, Dayflower, VA (dayflower, VA; [1]): 0; Plant response rating, Arrowleaf Sida (arrowleaf sida; [1]): 0
CCOc1cc(C(=O)NC(C)C)nn1Cc1ccnc(C(F)(F)F)c1 [Compound 188]	100	100	100	100	100	100	35	80	95	0	–	90	100	0	–	10	20	0	–	0	Deadnettle plant response rating (deadnettle; Postemergence, 125 g ai/ha): 45; Deadnettle plant response rating (deadnettle; Postemergence, 250 g ai/ha): 55; Deadnettle plant response rating (deadnettle; postemergence, 62 g ai/ha): 35
CCNC(=O)c1cc(CC)n(Cc2ccnc(C(F)(F)F)c2)n1 [Compound 196]	–	–	–	–	–	–	–	35	80	0	0	35	75	0	0	5	70	0	0	0	–
Cc1cc(C(=O)NC(C)C)nn1Cc1ccnc(C(F)(F)F)c1 [Compound 197]	–	–	–	–	–	–	–	0	20	0	0	0	40	0	0	5	10	0	5	5	–
CCc1cc(C(=O)NC2CC2)nn1Cc1ccnc(OCC(F)(F)F)c1 [Compound 200]	–	–	–	–	–	–	–	20	70	–	0	0	10	–	0	5	35	–	0	0	Plant response rating, Johnsongrass (johnsongrass; [7]): 75; Plant response rating, Dayflower, VA (dayflower, VA; [7]): 60; Plant response rating, Arrowleaf Sida (arrowleaf sida; [7]): 80
